Measurements from publication PMC2625337, “Flexible modulation of agonist efficacy at the human A3 adenosine receptor by the imidazoquinoline allosteric enhancer LUF6000” (BMC Pharmacology, 2008).

Key:
Assay type in all cases: biochemical
[1] = target: T1, human A3 adenosine receptor (A3 AR) (Homo sapiens, UniProt P0DMS8); test: […]GTPgammaS binding, CHO membranes; details: alone, no LUF6000; antagonist
T1 construct: gene ADORA3; full-length receptor stably expressed in CHO cells, membrane preparation
T1 sequence (P0DMS8 1-318): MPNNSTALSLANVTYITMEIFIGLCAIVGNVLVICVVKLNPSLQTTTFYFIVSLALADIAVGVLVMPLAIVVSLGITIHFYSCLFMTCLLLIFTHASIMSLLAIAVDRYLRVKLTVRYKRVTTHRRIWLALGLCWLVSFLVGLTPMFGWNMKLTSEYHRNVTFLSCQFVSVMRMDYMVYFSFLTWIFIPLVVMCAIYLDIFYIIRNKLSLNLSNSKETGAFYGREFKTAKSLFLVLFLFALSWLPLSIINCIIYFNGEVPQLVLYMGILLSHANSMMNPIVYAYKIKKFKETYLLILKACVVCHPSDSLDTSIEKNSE

[2] = target: T1, human A3 adenosine receptor (A3 AR); test: […]GTPgammaS binding, CHO membranes
[3] = target: T1, human A3 adenosine receptor (A3 AR); test: […]GTPgammaS binding, CHO membranes; details: agonist alone, no LUF6000
[4] = target: T2, human A1 adenosine receptor (A1 AR) (Homo sapiens, UniProt P30542); details: high-efficacy agonist
T2 construct: gene ADORA1; full-length receptor stably expressed in CHO cells, membrane preparation
T2 sequence (P30542 1-326): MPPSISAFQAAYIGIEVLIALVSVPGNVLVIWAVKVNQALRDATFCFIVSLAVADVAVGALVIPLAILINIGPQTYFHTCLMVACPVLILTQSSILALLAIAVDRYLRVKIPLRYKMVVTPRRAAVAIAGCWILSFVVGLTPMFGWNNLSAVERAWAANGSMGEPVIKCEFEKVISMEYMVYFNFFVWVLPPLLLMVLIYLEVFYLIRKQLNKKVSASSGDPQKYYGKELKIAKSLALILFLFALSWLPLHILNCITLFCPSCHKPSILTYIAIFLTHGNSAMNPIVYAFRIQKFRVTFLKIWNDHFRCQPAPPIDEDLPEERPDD

OC[C@H]1O[C@@H](n2cnc3c(NCc4cccc(I)c4)nc(Cl)nc32)[C@H](O)[C@@H]1O [MRS542, 2-chloro-N^6-(3-iodobenzyl)adenosine]
Emax (%) [1]: 5.6 ± 2.5%

CNC(=O)[C@H]1O[C@@H](n2cnc3c(NCc4cccc(I)c4)ncnc32)[C@H](O)[C@@H]1O [IB-MECA]
[35S]GTPgammaS binding, CHO membranes ([2]; agonist): IB-MECA was almost as efficacious as Cl-IB-MECA

Clc1ccc(Nc2nc3ccccc3c3nc(C4CCCCC4)[nH]c23)cc1Cl [LUF6000, N-(3,4-dichloro-phenyl)-2-cyclohexyl-1H-imidazo [4,5-c]quinolin-4-amine]
[35S]GTPgammaS binding, CHO membranes ([2]; allosteric enhancer, tested at 0.1-10 µM with agonists): LUF6000 showed a flexible modulatory effect of efficacy

O=c1[nH]cnc2c1ncn2[C@@H]1O[C@H](CO)[C@@H](O)[C@H]1O [inosine]
Emax (% of NECA) [3]: < 10%

OC[C@H]1O[C@@H](n2cnc3c(NC4CCCC4)nc(Cl)nc32)[C@H](O)[C@@H]1O [CCPA, 2-chloro-N^6-cyclopentyladenosine]
[35S]GTPgammaS binding, CHO membranes [4]: high-efficacy agonists CPA and CCPA or a low efficacy agonist MRS541 to activate the A1
